# Assay results published in patent US20230322854A1, “HUNTINGTIN-RELATED PEPTIDE AGENTS AND USES THEREOF” (UNIVERSITY OF SOUTHERN CALIFORNIA, priority 2020, published 2023).
# Entries after “also recorded” stand apart in the source; their conditions may differ. No end group written: not given here.
# Key:
# Httex1Q72 aggregates = biological target: T1, Httex1Q72 aggregates (Homo sapiens, UniProt P42858, INS38QQQQQQQQQQQQQQQQQQQQQQQQQQQQQQQQQQQQQQQQQQQQQQQQQQQ); experiment: Labeling of Httex1Q72 aggregates in fixed transfected HEK293 cells; type: cell-based; conditions: fixed cells 24 h after transfection, 0.1 micromolar peptide overnight
# T1 construct: Httex1Q72 (without RFP) was transfected into HEK293 cells; expressed in transfected cells
# Text: Left panels show fluorescent images (top left panel: nuclear stain to visualize all cells; middle left panel: fluorescein signal arising from the HD8-SP10-HD1-fluorescein peptide; bottom left panel: antibody against fluorescein to further amplify fluorescein signal). Right panels show phase contrast image of the same field. Arrows point to cytoplasmic aggregates that could be visualized with fluorescent signals or under phase contrast. Asterisks mark intranuclear aggregates that were labeled with HD8-SP10-HD1-fluorescein but not anti-fluorescein antibody.
# Next, we tested the ability of HD peptides to bind Httex1 aggregates formed in cultured cells. To do this, Httex1Q72 (without RFP) was transfected into HEK293 cells. […] The antibody labeled the rim of the cytoplasmic aggregates and the signal also surrounded some cell nuclei. Little antibody staining was observed on intranuclear aggregates.
# Httex1 aggregates [1] = experiment: Labeling of Httex1 aggregates in retinal sections of Huntington mouse models; conditions: 34-week-old R6/1 mice, 0.1 micromolar
# Text: FIG. 28 presents fluorescence microscopy pictures showing that HD8-Alexa488 labels aggregated Httex1 in retina sections from two different mouse model of Huntington disease. Left panels show nuclear stain that labels all cells. Right panels show signal from HD8-Alexa488. Top panels show a retinal section from a R6/1 mouse, and bottom panels show a retinal section from a zQ175KI mouse.
# Left panels show nuclear stain that labels all cells (A1 and B1), and right panels show signal from HD8-SP10-HD1-fluorescein (A2 and B2). Top panels are higher magnification that show the ganglion cell layer of the retina, and the bottom panels are lower magnification micrographs that show all retinal layers. Labeling of all retinal layers is seen when the HD peptides are dimerized. The phase contrast panel to the left of the bottom panels show the corresponding retinal layers: ONL: outer nuclear layer that contain rod and cone photoreceptor cells, INL: inner nuclear layer that contains cell bodies from horizontal cells, bipolar cells, amacrine cells and Müller cells, GCL: ganglion cell layer.
# To see whether HD peptides bind Httex1 aggregates formed in vivo, we used tissues from two different Huntington mouse models, R6/1 (34 weeks old) and zQ175KI (48 weeks). FIG. 28 show retinal sections from these mice incubated with 2 micromolar of HD8 conjugated with Alexa488 at its carboxyl terminus.
# HD8-HD1-fluorescein (0.1 micromolar) was also used on retinal sections from 34-week-old R6/1 mice (FIG. 29). […] In addition, weaker signal from intranuclear aggregates was also observed. Further, the signal can now be detected in all layers of the retina where the nuclei reside.
# Httex1 aggregates [2] = experiment: Labeling of Httex1 aggregates in brain sections of R6/1 mice; set-up: species or system mouse; conditions: R6/1 mice (34 weeks) versus age-matched control
# Text: Brain sections from age-matched littermate control and R6/1 mouse are shown in this figure.
# HD8-HD1-fluorescein was also used on brain sections from R6/1 mice (34 weeks).
# Huntingtin protein = experiment: In vitro Huntingtin aggregation assay imaged by electron microscopy; type: biochemical; conditions: synthetic peptide, 6 days
# Experimental: Synthetic HD1 and HD8 were also tested for their ability to inhibit fibril formation in an in vitro Huntingtin aggregation assay. In this assay, Huntingtin protein aggregated over a period of 6 days, forming fibrils that could be imaged using electron microscopy (FIG. 8; Controls).
# [3] = Radioactive binding assay, beads without target (no target control); conditions: radiolabeled peptide
# Experimental: (§1) The binding of the peptide library was determined using a radioactive binding assay. In this assay, peptides were radiolabeled by translating the mRNA coding for these peptides in the presence of ^35S-methionine using rabbit reticulocyte lysate (Jackson, et al. (1983) Methods Enzymol 96: 50-74). These peptides were translated in an mRNA display format and were thus linked to their encoding mRNA, as described above. After purification by dT chromatography, the radiolabeled peptides were incubated with Huntingtin fibrils immobilized on Neutravidin Agarose or Streptavidin Ultralink beads. The beads were then filtered through a Spin X column (Corning) to separate the supernatant and beads, then washed to remove unbound sequences. The supernatant, washes, and beads were all counted in a scintillation counter to determine the counts in each sample. The percent bound was determined by dividing the counts on the beads with the total counts (beads+washes+supernatant).
# Htt-fibrils [4] = experiment: EPR of spin-labeled peptide binding to Htt-fibrils; conditions: spin-labeled synthetic peptide
# Experimental: FIG. 10 presents graphs showing testing binding of chemically synthesized HD1 or HD8 using Electron Paramagnetic Resonance (EPR). […] Panel B is a graph showing the results of experiments aimed at the determination of the stoichiometry of peptides binding to Httex1 molecules in the fibril, in which a spin-labeled peptide (HD1 or HD8) is added to 15 μM fibrils.
# HD1 and HD8 binding was analyzed by electron paramagnetic resonance (EPR). The synthetic peptides were spin labeled using a free Cys at the C-terminus of the peptides. […] The stoichiometry of the complex was also studied using EPR, with varying amounts of peptide added to fibrils (FIG. 10, panel B).
# α-Synuclein fibrils = α-Synuclein fibrils (Homo sapiens, UniProt P37840); experiment: Radioactive binding assay, α-Synuclein fibrils; conditions: radiolabeled peptide
# Experimental: as §1
# (§2) HD1 and HD8 were also tested for binding specificity. Radiolabeled HD1 and HD8 were incubated with monomeric Huntingtin, unbundled Htt-fibrils, or α-Synuclein fibrils (α-Synuclein is another protein known to aggregate and form fibrils).
# monomeric Huntingtin = experiment: Radioactive binding assay, monomeric Huntingtin; conditions: radiolabeled peptide
# Experimental: as §1
# HD1 through HD4 were also tested for binding to monomeric Huntingtin (FIG. 5).
# as §2
# Htt-fibrils [5] = experiment: Competition binding of synthetic peptide against radiolabeled peptide on immobilized fibrils; conditions: competitor = synthetic peptide in DMSO, 3.2 Fibril; for binding of radiolabeled HD8 to Htt-fibrils on addition of synthetic peptide: not to the same extent as with radiolabeled HD1
# Experimental: Radiolabeled HD1 or HD8 were bound to immobilized fibrils and the appropriate compound was tested in a competition binding assay. From left to right and for each dataset shown on the graph (i.e., “HD1” and “HD8”), the bars represent “No Target+DMSO”, “No Target+HD1”, “No Target+HD8”, “3.2 Fibril+DMSO”, “3.2 Fibril+HD1”, and “3.2 Fibril+HD8”.
# HD1 and HD8 were chemically synthesized and purified by reverse-phase HPLC and resuspended in DMSO. In order to verify that these synthetic peptides were functional for binding, we designed a competition experiment. We radiolabeled HD1 and HD8 above then tested to see if synthetic HD1 or HD8 would compete and reduce binding of the radiolabeled peptides. […] Binding to Htt-fibrils (3.2 Fibril+DMSO) was reduced by the addition of synthetic HD1 (3.2 Fibril+HD1) or by addition of synthetic HD8 (3.2 Fibril+HD8).
# [6] = tested on: unbundled Huntingtin fibrils (exon 1); experiment: Radioactive binding assay, immobilized unbundled Huntingtin fibrils; conditions: for binding to Htt-fibrils: radiolabeled mRNA-peptide fusions, fibrils immobilized on beads
# Text: Messenger RNA (mRNA) display (described in (Roberts, et al. (1997) Proc Natl Acad Sci USA 94: 12297-302, Takahashi, et al. (2003) Trends Biochem Sci 28: 159-65); FIG. 2) was used to engineer peptide agents that bind to unbundled fibrils of Huntingtin exon 1. To do this, unbundled Huntingtin fibrils were generated by mixing biotinylated Huntingtin protein (exon 1; FIG. 1) with non-biotinylated exon 1 Huntingtin protein at a ratio of 1:20 (˜5% biotinylated Huntingtin). These fibrils were then immobilized on Neutravidin agarose (Thermo Fisher) or Streptavidin ultralink beads (Thermo Fisher) via the attached biotin. A MX9 (where X is any of the 20 natural amino acids) mRNA display library was generated using published procedures (Takahashi, et al. (2009) Methods Mol Biol 535: 293-314) and incubated with immobilized fibrils. Non-binding sequences were washed away and the remaining fibril binding peptides were amplified via RT-PCR. This process was repeated seven times.
# as §1
# Huntingtin Exon 1 Q39 = biological target: T2, Huntingtin Exon 1 Q39 (Homo sapiens, UniProt P42858, DUP21-38); experiment: Co-localization of Alexa 488-labeled peptide with Httex1 Q39-RFP in fixed N2A cells; type: cell-based, mouse; conditions: fixed N2A cells transfected with Httex1 Q39-RFP
# T2 construct: expressing Huntingtin Exon 1 Q39 (mutant Huntingtin with 39 CAG repeats) fused to red fluorescent protein (tagRFP); expressed in transfected cells; host or cells: N2A (mouse neuroblastoma cell line)
# Experimental: In these experiments, N2A cells (mouse neuroblastoma cell line) were transfected with Httex1 Q39 fused with RFP (middle column). Cells were fixed and stained for HD 1 or HD 8 with Alexa 488 (left column). Co-localization of HD1/HD8 with Httex1 aggregates is shown in the merged image (co-localization observed in cells is indicated by white arrows). The “CTRL” rows show the non-transfected cells, which were treated with 5 times more peptide to confirm the localization was not due to aggregations of peptides or off-target binding occurring in the cell.
# HD1 and HD8 were also tested to see if the synthetic peptide recognized Huntingtin fibrils from cells. In this assay, HD1 and HD8 are were labeled with the fluorescent dye, Alexa 488 and were incubated with fixed N2A cells (a mouse neuroblastoma cell line) that were expressing Huntingtin Exon 1 Q39 (mutant Huntingtin with 39 CAG repeats) fused to red fluorescent protein (tagRFP). In control experiments, with no Huntingtin exon 1 (Q39)-RFP fusion (Httex1 Q39) transfected, a diffuse signal is observed with HD1 and HD8 peptides (FIG. 11; Controls).
# [7] = biological target: unbundled fibrils of Huntingtin exon 1 (about 5% biotinylated), immobilized on beads (UniProt P42858); experiment: radioactive binding assay, fibrils immobilised on beads
# [8] = listed as HD8-SP10-HD1-fluorescein
# T2 sequence (P42858 with tags, fused parts or gaps DUP21-38): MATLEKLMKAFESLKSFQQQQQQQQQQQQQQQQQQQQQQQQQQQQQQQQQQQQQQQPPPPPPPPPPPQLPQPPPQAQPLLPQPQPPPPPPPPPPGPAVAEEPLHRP
# T1 sequence (P42858 with tags, fused parts or gaps limits assumed, stated change not applied): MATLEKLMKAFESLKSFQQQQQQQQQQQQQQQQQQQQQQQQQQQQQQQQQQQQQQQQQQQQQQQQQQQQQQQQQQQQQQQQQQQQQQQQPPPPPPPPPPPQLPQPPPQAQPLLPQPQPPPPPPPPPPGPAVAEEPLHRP
Substance,labeling of Httex1Q72 aggregates (Httex1Q72 aggregates),labeling of Httex1Q72 aggregates (Httex1Q72 aggregates; [8]),labeling of retinal sections (Httex1 aggregates [1]),labeling of retinal sections (Httex1 aggregates [1]; [8]),labeling of brain sections (Httex1 aggregates [2]),labeling of brain sections (Httex1 aggregates [2]; [8]),inhibition of fibril formation (Huntingtin protein),binding to beads without target [3],EPR central line amplitude upon addition of Htt fibrils (peptide-fibril complex formation) (Htt-fibrils [4]),binding to α-Synuclein fibrils (α-Synuclein fibrils),binding to monomeric Huntingtin (monomeric Huntingtin),binding of radiolabeled HD1 to Htt-fibrils on addition of synthetic peptide (Htt-fibrils [5]),binding of radiolabeled HD8 to Htt-fibrils on addition of synthetic peptide (Htt-fibrils [5]),binding to Htt-fibrils [6],"binding to Htt-fibrils in the presence of serum ([6]; serum diluted 1:2, 1:5 or 1:10 with buffer (TBST))",colocalization of Alexa 488 signal and RFP signal (Huntingtin Exon 1 Q39),fold less binding as compared with HD1 and HD8 [7]
HD8-HD1-fluorescein: HD8-HD1 labeled with fluorescein at its carboxyl terminus (MWQMMNGMSQGSGTSGSSGSMDWWPMWPSL-fluorescein),strong labeling of the round cytoplasmic Httex1Q72 aggregates (arrows) and intranuclear aggregates,bound Httex1Q72 aggregates,Robust signal from the peptide can be seen in the ganglion cell layer,enhanced reactivity of Httex1 aggregates in all retinal layers,abundant signal from R6/1 brain,labels Httex1 aggregates in brain section,,,,,,,,,,,
MDWWPMWPSL [HD1],,,,,,,significant inhibition of fibril formation,little to no binding to beads without target; also recorded: little to no binding,decrease in central line amplitude,little to no binding,little to no binding,reduced,similarly reduced,demonstrated binding to Htt-fibrils; also recorded: bind to Htt-fibrils; also recorded: show binding to Htt-fibrils,serum partially inhibits the binding,significant colocalization,
MWQMMNGMSQ [HD8],,,,,,,significant inhibition of fibril formation,little to no binding to beads without target; also recorded: little to no binding; also recorded: low binding to beads without target,decrease in central line amplitude,little to no binding,little to no binding,reduced,similarly reduced,good binding to Htt-fibrils; also recorded: bind to Htt-fibrils; also recorded: show binding to Htt-fibrils,,significant colocalization,
QBP1 (peptide),,,,,,,,,,,,,,,,,10 fold
